Test: Clinical Experiment 2: weight of type 2 diabetics, acarbose-controlled double-blind study
Format: in vivo, human
Details: SZ-A = tablets of Embodiment 1 extract, 50 mg total alkaloids each
Source text: • 1. Objective • Effect of Ramulus Mori extract on reducing weight of diabetics. • 2. Experiment method • 2.1 Grouping • Random, double-blind and double-simulation, parallel control of acarbose tablets, multicenter, non-inferiority were adopted in the study design. A total of 600 patients with type 2 diabetes (aged 18 to 70 years old, 19 kg/m^2≤BMI≤30 kg/m^2, 7%≤HbAlC≤10%) and poor blood glucose control were included, and were randomly divided into a total alkaloid tablet group (SZ-A, N=360) and a acarbose (Glucobay®) group (CON, N=240). All signed informed consents. […] (1) From the Pt to the 24th week of administration, the height, weight and weight gain of each group were observed and recorded every day. […]

C[C@H]1O[C@H](O[C@H]2[C@H](O)[C@@H](O)[C@@H](O[C@H]3[C@H](O)[C@@H](O)C(O)O[C@@H]3CO)O[C@@H]2CO)[C@H](O)[C@@H](O)[C@@H]1N[C@H]1C=C(CO)[C@@H](O)[C@H](O)[C@H]1O (some centres unmarked) [acarbose]
average change of weight (type 2 diabetics with BMI≥28 kg/m^2, after 8 weeks of administration): 0.210 kg | average change of weight (type 2 diabetics with BMI≥28 kg/m^2, after 24 weeks of administration): -0.182 kg

Source: patent publication US20240156889A1, “A METHOD FOR REDUCING ANIMAL WEIGHT” (BEIJING WEHAND-BIO PHARMACEUTICAL CO., LTD, priority 2021, published 2024)
